Legend:
[1] = Mouse liver microsomal stability assay; assay type: in vitro ADME; conditions: mouse liver microsomes
From the text: Further examples of useful assays include metabolic stability assays, such as but not limited to e.g., liver microsomal clearance assays which provide measurement such as, but not limited to e.g., liver microsomal clearance half-life (t1/2), liver microsomal intrinsic clearance (CLint), and the like. Such measurements are useful in assessing various characteristics of a subject compound, such as e.g., the availability of an intact compound to provide a pharmacological effect. A compound having a longer microsomal clearance half-life (t1/2), e.g., than a reference compound, will provide better exposure of the intact compound and greater availability to produce the relevant pharmacological effect. A compound having a less microsomal clearance, e.g., as measured by liver microsomal intrinsic clearance (CLint), will similarly result in greater exposure of the intact compound available for an increase in the relevant pharmacological effect, e.g., as compared to that of a reference compound with a higher liver microsomal intrinsic clearance (CLint). Other useful assays include in vitro hepatocyte metabolic stability assays.
(§1) Such assessments included human and mouse liver microsomal stability assays as well as 6-hour mouse PK studies.

Mouse 6-hour PK study = conditions: in vivo, mouse 6-hour PK
From the text: Useful such assays include, but are not limited to e.g., those measurements made in PK studies, such as rodent and non-human primate PK studies, including e.g., mouse (such as mouse 6-hour PK studies), rat PK studies, cynomolgus or rhesus PK studies, or the like. Useful measurements obtained in such PK studies include but are not limited to e.g., maximum concentration (Cmax) reflecting the “peak” of a drug observed after its administration that can reflect not only the rate but also the extent of absorption, area under the curve (AUC) representing the area under the plot of tissue (e.g., plasma) concentration against time after drug administration which is of particular use in estimating bioavailability of drugs and drug total clearance, half-life (t1/2) or the period of time required for the concentration or amount of drug to be reduced to exactly one-half of a given concentration or amount that indicates the persistence of the drug in its volume of distribution, and the like.
as §1

[2] = Ligand facilitated Fe(III) efflux from liposomes; assay type: biochemical; set-up: unit not given here; conditions: efflux rate k at 10 μM ligand concentration; ferrozine absorbance 562 nm, 120 min kinetic read
In short: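 POPC/cholesterol liposomes loaded with Fe(III) citrate in MES/Tris pH 7.0, diluted to 1 mM phosphorus in ascorbate buffer with 1 mM ferrozine outside. Ligand at 1.25–40 µM; absorbance at 562 nm read every 60 s for 120 min. Efflux rate k fitted by single-phase association, averaged over triplicates, compared at 10 µM.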

With CC(C)c1cccc(=O)c(O)c1 [hinokitiol, reference compound] the microsomal CLint ([1]; read-out: Mouse CLint) was 46.7 µL/min/mg, the half-life ([1]; read-out: Mouse t1/2) was 29.7 min and the AUC(0-t) (Mouse 6-hour PK study; read-out: AUClast 0-6 hr) was 584 ng·h/mL. The Cmax (Mouse 6-hour PK study; read-out: Cmax) was 956 ng/mL, the half-life (Mouse 6-hour PK study; read-out: t1/2 (converted)) was 66.6 min and the “Liposome Fe transport kefflux at 10 μM” value [2] was 7.77.

— patent US20230406803A1, “TROPOLONE DERIVATIVES AND TAUTOMERS THEREOF FOR IRON REGULATION IN ANIMALS” (Kinesid Therapeutics, Inc, priority 2020, published 2023)
